17 compounds from US20230192617A1, “AZABICYCLIC(THIO)AMIDES AS FUNGICIDAL COMPOUNDS” (Bayer CropScience Aktiengesellschaft, priority 2020, published 2023) can be followed below.

One assay relates to Botrytis cinerea. Nature of the assay: In vivo preventive test on Botrytis cinerea (grey mould). The conditions noted are these: 500 ppm of active ingredient, preventive spray on gherkin or cabbage, evaluated 4 to 5 days after inoculation, read-out: efficacy. In short, it runs like this: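 Preventive spray on cabbage or gherkin seedlings, with compound formulated in DMSO/acetone/Tween 80 and water-diluted, preceded spore inoculation by 24 hours. Cabbage was held 4 to 5 days at 20° C., 100% relative humidity; gherkin 4 to 5 days at 17° C., 90% relative humidity.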

The next assay has as its system Septoria tritici. Nature of the assay: B-9. Septoria tritici in vitro cell test. To be noted: Zymoseptoria tritici, 168 h; 20 ppm of active ingredient; 7 days incubation; liquid culture, absorbance; read-out: efficacy (inhibition of fungal growth). Type of assay: cell-based. Summed up: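 Compounds from DMSO stocks (final DMSO ≤1%) were added to liquid medium containing S. tritici spores to test inhibition of germination and mycelial growth. After 7 days, mycelium growth was read spectrometrically and inhibition derived from absorbance versus fungicide-free control wells.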

In the next assay the test system is Pyrenophora teres. Nature of the assay: B-10. Pyrenophora teres in vitro cell test. It is filed as cell-based. The conditions noted are these: 144 h, 20 ppm of active ingredient, 6 days incubation, liquid culture, absorbance, read-out: efficacy (inhibition of fungal growth). In short, it runs like this:
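Liquid-culture assay on a P. teres spore suspension with compounds added to the medium from DMSO solutions, final DMSO ≤1%. Mycelium growth read spectrometrically after 6 days. Inhibition calculated from absorbance against untreated control wells.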

Each structure is given as a SMILES string.

As for `Cc1ccc(C(F)(F)CNC(=O)c2c(Oc3cccc(C4CC4)c3F)nnc3c2CCC3)c(Cl)c1` [I-144], in the assay on Botrytis cinerea, the pest or weed control at 500 ppm was in the range of 90 to 100%. Moreover, the inhibition at 20 ppm lay in the range of 80 to 89% in the assay on Septoria tritici and 90 to 100% in the assay on Pyrenophora teres.
Turning to `Cc1ccc(C(F)(F)CNC(=O)c2c(Oc3cccc(C(F)(F)F)c3)nnc3cc(C)ccc23)c(Cl)c1` [I-245], in the assay with Botrytis cinerea, the pest or weed control at 500 ppm was in the range of 90 to 100%. The inhibition at 20 ppm is 80 to 89% in the assay on Septoria tritici and 90 to 100% in the assay on Pyrenophora teres.
As to `Cc1cc(Br)ccc1C(F)(F)CNC(=O)c1c(Oc2cccc(C(F)(F)F)c2)nnc2c1COCC2` [I-127], the pest or weed control at 500 ppm with Botrytis cinerea was in the range of 90 to 100%. Moreover, the inhibition at 20 ppm with Septoria tritici and with Pyrenophora teres was 90 to 100% in each case.
Turning to `O=C(NCC(F)(F)c1ccc(Cl)cc1Cl)c1c(Oc2cccc(C(F)(F)F)c2)nnc2c1COCC2` [I-228], in the assay with Botrytis cinerea, the pest or weed control at 500 ppm lay in the range of 90 to 100%. Also, the inhibition at 20 ppm in the assay with Septoria tritici and with Pyrenophora teres was 90 to 100% each time.
Regarding `Cc1cccc(Oc2cnc3ccccc3c2C(=O)NCC(F)(F)c2ccc(C)cc2C)c1` [I-222], the pest or weed control at 500 ppm with Botrytis cinerea lay within 90 to 100%. Moreover, the values for the inhibition at 20 ppm with Septoria tritici and in the assay on Pyrenophora teres were 80 to 89% and 90 to 100%, respectively.
Regarding `Cc1ccc(C(F)(F)CNC(=O)c2c(Oc3cccc(Cl)c3F)nnc3c2CCC3)c(Cl)c1` [I-143], the pest or weed control at 500 ppm in the assay with Botrytis cinerea was 90 to 100%. The inhibition at 20 ppm in the assay on Septoria tritici and with Pyrenophora teres was 90 to 100% in each case.
Consider `Cc1ccc(C(F)(F)CNC(=O)c2c(Oc3cccc(C4CC4)c3F)nnc3c2CCC3)c(C)c1` [I-134], for which, in the assay on Botrytis cinerea, the pest or weed control at 500 ppm was in the range of 90 to 100%. In addition, the inhibition at 20 ppm with Septoria tritici and with Pyrenophora teres was 90 to 100% in each case.
For `O=C(NCC(F)c1ccc(Cl)cc1Cl)c1c(Oc2cccc(C(F)(F)F)c2)nnc2c1CCCC2` (stereo not drawn) [I-118], in the assay on Botrytis cinerea, the pest or weed control at 500 ppm fell in the range of 90 to 100%. For the same compound, the inhibition at 20 ppm in the assay with Septoria tritici and with Pyrenophora teres was 90 to 100% in each case.
Take `Cc1cc(Cl)ccc1C(F)(F)CNC(=O)c1c(Oc2cccc(C(F)(F)F)c2)nnc2c1CCCC2` [I-145]: the pest or weed control at 500 ppm in the assay with Botrytis cinerea was 90 to 100%. The inhibition at 20 ppm in the assay on Septoria tritici and in the assay on Pyrenophora teres was 90 to 100% throughout.
On to `Cc1ccc(C(F)(F)CNC(=O)c2c(Oc3cccc(Br)c3F)nnc3ccccc23)c(C)c1` [I-227], for which the pest or weed control at 500 ppm with Botrytis cinerea lay in the range of 90 to 100%. The inhibition at 20 ppm with Septoria tritici lay in the range of 70 to 79%; with Pyrenophora teres, 90 to 100%.
`Cc1ccc(C(F)(F)CNC(=O)c2c(Oc3cccc(Cl)c3F)nnc3c2CCCC3)c(C)c1` [I-130]: the pest or weed control at 500 ppm with Botrytis cinerea is 90 to 100%. In addition, the inhibition at 20 ppm in the assay on Septoria tritici and in the assay with Pyrenophora teres was 90 to 100% each time.
Consider `Cc1ccc(C(F)(F)CNC(=O)c2c(Oc3cccc(C(F)(F)F)c3)nnc3c2CCCC3)c(Cl)c1` [I-239], for which the pest or weed control at 500 ppm with Botrytis cinerea fell in the range of 90 to 100%. For the same compound, the inhibition at 20 ppm in the assay with Septoria tritici and in the assay with Pyrenophora teres was 90 to 100% in each case.
For the compound `Cc1cc(Br)ccc1C(F)(F)CNC(=O)c1c(Oc2cccc(C(F)F)c2)nnc2c1CCCC2` [I-150], the pest or weed control at 500 ppm in the assay on Botrytis cinerea was 90 to 100%. Also, the inhibition at 20 ppm in the assay on Septoria tritici and in the assay on Pyrenophora teres was 90 to 100% each time.
Take `Cc1cc(Br)ccc1C(F)(F)CNC(=O)c1c(Oc2cccc(Cl)c2)nnc2c1CCCC2` [I-151]: in the assay on Botrytis cinerea, the pest or weed control at 500 ppm lay within 90 to 100%. In addition, the inhibition at 20 ppm with Septoria tritici and in the assay on Pyrenophora teres was 90 to 100% in each case.
Regarding `Cc1ccc(C(F)(F)CNC(=O)c2c(Oc3cccc(Cl)c3)nnc3c2CCCC3)c(C)c1` [I-121], the pest or weed control at 500 ppm with Botrytis cinerea lay within 90 to 100%. Moreover, the inhibition at 20 ppm in the assay with Septoria tritici and in the assay on Pyrenophora teres was 90 to 100% in each case.
With `Cc1ccc(C(F)(F)CNC(=O)c2c(Oc3cccc(C4CC4)c3F)nnc3c2CCCC3)c(C)c1` [I-131], the pest or weed control at 500 ppm in the assay on Botrytis cinerea lay within 90 to 100%. Further, the inhibition at 20 ppm in the assay on Septoria tritici and in the assay with Pyrenophora teres was 90 to 100% each time.
With `Cc1ccc(C(F)(F)CNC(=O)c2c(Oc3cccc(Cl)c3F)nnc3c2CCC3)c(C)c1` [I-133], the pest or weed control at 500 ppm in the assay on Botrytis cinerea lay within 90 to 100%. Besides, the inhibition at 20 ppm in the assay with Septoria tritici and with Pyrenophora teres was 90 to 100% throughout.

One may read the inhibition as the relative decrease from the control value, in per cent.
